Experimental data taken from ChEMBL document CHEMBL1138190, “Synthesis and antibacterial activity of novel C12 vinyl ketolides” (J Med Chem, 2006).
In brackets after ≈: the same amount, converted by molar mass.

Legend:
Assay type in all cases: functional
Streptococcus pneumoniae [1] = assay: Antibacterial activity against Streptococcus pneumoniae Mef S 3427
Streptococcus pyogenes = assay: Antibacterial activity against Streptococcus pyogenes 8668
[2] = tested on: Staphylococcus epidermidis; assay: Antibacterial activity against Staphylococcus epidermidis 14990
Enterococcus faecalis [3] = assay: Antibacterial activity against Enterococcus faecalis 29212
Streptococcus pneumoniae [4] = assay: Antibacterial activity against Streptococcus pneumoniae 280-962
Haemophilus influenzae [5] = assay: Antibacterial activity against Haemophilus influenzae 49247
Staphylococcus aureus [6] = assay: Antibacterial activity against Staphylococcus aureus 29213
Staphylococcus aureus [7] = assay: Antibacterial activity against Staphylococcus aureus 33591
Streptococcus pneumoniae [8] = assay: Antibacterial activity against Streptococcus pneumoniae Erm 6849
Streptococcus pneumoniae [9] = assay: Antibacterial activity against Streptococcus pneumoniae Mef 5654
[10] = tested on: Staphylococcus epidermidis; assay: Antibacterial activity against Staphylococcus epidermidis f50654
Streptococcus pneumoniae [11] = assay: Antibacterial activity against Streptococcus pneumoniae 49619
Streptococcus pneumoniae [12] = assay: Antibacterial activity against Streptococcus pneumoniae 297-749
Haemophilus influenzae [13] = assay: Antibacterial activity against Haemophilus influenzae 2762
Enterococcus faecalis [14] = assay: Antibacterial activity against Enterococcus faecalis bc11148-2

Row | SMILES | MIC (Streptococcus pneumoniae [1]) [µg/mL] | MIC (Streptococcus pyogenes) [µg/mL] | MIC [2] [µg/mL] | MIC (Enterococcus faecalis [3]) [µg/mL] | MIC (Streptococcus pneumoniae [4]) [µg/mL] | MIC (Haemophilus influenzae [5]) [µg/mL] | MIC (Staphylococcus aureus [6]) [µg/mL] | MIC (Staphylococcus aureus [7]) [µg/mL] | MIC (Streptococcus pneumoniae [8]) [µg/mL] | MIC (Streptococcus pneumoniae [9]) [µg/mL] | MIC [10] [µg/mL] | MIC (Streptococcus pneumoniae [11]) [µg/mL] | MIC (Streptococcus pneumoniae [12]) [µg/mL] | MIC (Haemophilus influenzae [13]) [µg/mL] | MIC (Enterococcus faecalis [14]) [µg/mL]
1 | C=C[C@]12OC(=O)N(CCCCn3cnc4c(C)ncnc43)[C@@H]1[C@@H](C)C(=O)[C@H](C)C[C@@](C)(OC)[C@H](O[C@@H]1O[C@H](C)C[C@H](N(C)C)[C@H]1O)[C@@H](C)C(=O)[C@@H](C)C(=O)O[C@@H]2CC | 0.2 (≈ 0.246 µM) | ≤ 0.05 | 0.1 (≈ 0.123 µM) | ≤ 0.05 | ≤ 0.05 | 3.13 (≈ 3.85 µM) | 0.1 (≈ 0.123 µM) | > 50 | > 50 | 0.78 (≈ 0.959 µM) | 0.1 (≈ 0.123 µM) | ≤ 0.05 | ≤ 0.05 | 0.78 (≈ 0.959 µM) | 0.4 (≈ 0.492 µM)
2 | C=C[C@]12OC(=O)N(CCCCn3ccc4ncccc43)[C@@H]1[C@@H](C)C(=O)[C@H](C)C[C@@](C)(OC)[C@H](O[C@@H]1O[C@H](C)C[C@H](N(C)C)[C@H]1O)[C@@H](C)C(=O)[C@@H](C)C(=O)O[C@@H]2CC | 0.1 (≈ 0.125 µM) | ≤ 0.05 | 0.1 (≈ 0.125 µM) | 0.1 (≈ 0.125 µM) | ≤ 0.05 | 6.25 (≈ 7.84 µM) | 0.1 (≈ 0.125 µM) | > 50 | 6.25 (≈ 7.84 µM) | 0.4 (≈ 0.502 µM) | 0.1 (≈ 0.125 µM) | ≤ 0.05 | ≤ 0.05 | 1.56 (≈ 1.96 µM) | 3.13 (≈ 3.93 µM)
3 | C=C[C@]12OC(=O)N(CCN(C)Cc3ccc(-c4cccnc4)s3)[C@@H]1[C@@H](C)C(=O)[C@H](C)C[C@@](C)(OC)[C@H](O[C@@H]1O[C@H](C)C[C@H](N(C)C)[C@H]1O)[C@@H](C)C(=O)[C@@H](C)C(=O)O[C@@H]2CC | 0.1 (≈ 0.117 µM) | ≤ 0.05 | 0.1 (≈ 0.117 µM) | 0.1 (≈ 0.117 µM) | ≤ 0.05 | 6.25 (≈ 7.31 µM) | 0.2 (≈ 0.234 µM) | > 50 | 0.2 (≈ 0.234 µM) | 0.78 (≈ 0.912 µM) | 0.2 (≈ 0.234 µM) | ≤ 0.05 | ≤ 0.05 | 3.13 (≈ 3.66 µM) | 0.4 (≈ 0.468 µM)
4 | C=C[C@]12OC(=O)N(CCCCn3cnc(-c4cnccn4)c3)[C@@H]1[C@@H](C)C(=O)[C@H](C)C[C@@](C)(OC)[C@H](O[C@@H]1O[C@H](C)C[C@H](N(C)C)[C@H]1O)[C@@H](C)C(=O)[C@@H](C)C(=O)O[C@@H]2CC | 0.1 (≈ 0.121 µM) | ≤ 0.05 | 0.1 (≈ 0.121 µM) | 0.1 (≈ 0.121 µM) | ≤ 0.05 | 3.13 (≈ 3.79 µM) | 0.2 (≈ 0.242 µM) | > 50 | 0.2 (≈ 0.242 µM) | 0.78 (≈ 0.945 µM) | 0.2 (≈ 0.242 µM) | ≤ 0.05 | ≤ 0.05 | 1.56 (≈ 1.89 µM) | 0.4 (≈ 0.485 µM)
5 | C=C[C@]12OC(=O)N(CCCCn3cnc(-c4ccc(OC)nc4)c3C)[C@@H]1[C@@H](C)C(=O)[C@H](C)C[C@@](C)(OC)[C@H](O[C@@H]1O[C@H](C)C[C@H](N(C)C)[C@H]1O)[C@@H](C)C(=O)[C@@H](C)C(=O)O[C@@H]2CC | 0.2 (≈ 0.23 µM) | ≤ 0.05 | 0.1 (≈ 0.115 µM) | 0.2 (≈ 0.23 µM) | ≤ 0.05 | 6.25 (≈ 7.2 µM) | 0.2 (≈ 0.23 µM) | > 50 | 0.4 (≈ 0.461 µM) | 1.56 (≈ 1.8 µM) | 0.4 (≈ 0.461 µM) | ≤ 0.05 | ≤ 0.05 | 1.56 (≈ 1.8 µM) | 1.56 (≈ 1.8 µM)
6 | C=C[C@]12OC(=O)N(CCCCn3cc(-c4ccc(Cl)nc4)nc3C)[C@@H]1[C@@H](C)C(=O)[C@H](C)C[C@@](C)(OC)[C@H](O[C@@H]1O[C@H](C)C[C@H](N(C)C)[C@H]1O)[C@@H](C)C(=O)[C@@H](C)C(=O)O[C@@H]2CC | ≤ 0.05 | ≤ 0.05 | 0.1 (≈ 0.115 µM) | 0.1 (≈ 0.115 µM) | ≤ 0.05 | 6.25 (≈ 7.16 µM) | 0.2 (≈ 0.229 µM) | > 50 | 0.4 (≈ 0.458 µM) | 0.78 (≈ 0.894 µM) | 0.2 (≈ 0.229 µM) | ≤ 0.05 | ≤ 0.05 | 1.56 (≈ 1.79 µM) | 3.13 (≈ 3.59 µM)
7 | C=C[C@]12OC(=O)N(CCCCn3cnc(-c4ccc(OC)nc4)c3)[C@@H]1[C@@H](C)C(=O)[C@H](C)C[C@@](C)(OC)[C@H](O[C@@H]1O[C@H](C)C[C@H](N(C)C)[C@H]1O)[C@@H](C)C(=O)[C@@H](C)C(=O)O[C@@H]2CC | 0.1 (≈ 0.117 µM) | ≤ 0.05 | 0.2 (≈ 0.234 µM) | ≤ 0.05 | ≤ 0.05 | 6.25 (≈ 7.32 µM) | 0.1 (≈ 0.117 µM) | > 50 | 0.4 (≈ 0.468 µM) | 0.78 (≈ 0.913 µM) | 0.1 (≈ 0.117 µM) | ≤ 0.05 | ≤ 0.05 | 0.78 (≈ 0.913 µM) | 0.78 (≈ 0.913 µM)
8 | C=C[C@]12OC(=O)N(CCCCn3cnc4ncccc43)[C@@H]1[C@@H](C)C(=O)[C@H](C)C[C@@](C)(OC)[C@H](O[C@@H]1O[C@H](C)C[C@H](N(C)C)[C@H]1O)[C@@H](C)C(=O)[C@@H](C)C(=O)O[C@@H]2CC | 0.2 (≈ 0.251 µM) | ≤ 0.05 | 0.1 (≈ 0.125 µM) | 0.1 (≈ 0.125 µM) | ≤ 0.05 | 1.56 (≈ 1.95 µM) | 0.2 (≈ 0.251 µM) | > 50 | 3.13 (≈ 3.92 µM) | 1.56 (≈ 1.95 µM) | 0.4 (≈ 0.501 µM) | ≤ 0.05 | ≤ 0.05 | 0.78 (≈ 0.977 µM) | 0.78 (≈ 0.977 µM)
9 | C=C[C@]12OC(=O)N(CCCCn3ccc4nc(C(C)=O)ccc43)[C@@H]1[C@@H](C)C(=O)[C@H](C)C[C@@](C)(OC)[C@H](O[C@@H]1O[C@H](C)C[C@H](N(C)C)[C@H]1O)[C@@H](C)C(=O)[C@@H](C)C(=O)O[C@@H]2CC | 0.2 (≈ 0.238 µM) | ≤ 0.05 | 0.1 (≈ 0.119 µM) | 0.2 (≈ 0.238 µM) | ≤ 0.05 | 3.13 (≈ 3.73 µM) | 0.1 (≈ 0.119 µM) | > 50 | 3.13 (≈ 3.73 µM) | 0.78 (≈ 0.93 µM) | 0.1 (≈ 0.119 µM) | ≤ 0.05 | ≤ 0.05 | 0.2 (≈ 0.238 µM) | 6.25 (≈ 7.45 µM)
10 | C=C[C@]12OC(=O)N(CCCCn3cnc(-c4cnc(OC)nc4)c3)[C@@H]1[C@@H](C)C(=O)[C@H](C)C[C@@](C)(OC)[C@H](O[C@@H]1O[C@H](C)C[C@H](N(C)C)[C@H]1O)[C@@H](C)C(=O)[C@@H](C)C(=O)O[C@@H]2CC | 0.2 (≈ 0.234 µM) | ≤ 0.05 | 0.1 (≈ 0.117 µM) | ≤ 0.05 | ≤ 0.05 | 6.25 (≈ 7.31 µM) | 0.1 (≈ 0.117 µM) | > 50 | 0.4 (≈ 0.468 µM) | 0.78 (≈ 0.912 µM) | 0.1 (≈ 0.117 µM) | ≤ 0.05 | ≤ 0.05 | 0.78 (≈ 0.912 µM) | 0.4 (≈ 0.468 µM)
11 | C=C[C@]12OC(=O)N(CCCCn3cnc(-c4ccc(F)nc4)c3)[C@@H]1[C@@H](C)C(=O)[C@H](C)C[C@@](C)(OC)[C@H](O[C@@H]1O[C@H](C)C[C@H](N(C)C)[C@H]1O)[C@@H](C)C(=O)[C@@H](C)C(=O)O[C@@H]2CC | 0.1 (≈ 0.119 µM) | ≤ 0.05 | 0.1 (≈ 0.119 µM) | 0.1 (≈ 0.119 µM) | ≤ 0.05 | 3.13 (≈ 3.72 µM) | 0.1 (≈ 0.119 µM) | > 50 | 0.78 (≈ 0.926 µM) | 0.4 (≈ 0.475 µM) | 0.1 (≈ 0.119 µM) | ≤ 0.05 | ≤ 0.05 | 1.56 (≈ 1.85 µM) | 0.4 (≈ 0.475 µM)
12 | C=C[C@]12OC(=O)N(CCCCn3cnc(-c4cnc(C)cn4)c3)[C@@H]1[C@@H](C)C(=O)[C@H](C)C[C@@](C)(OC)[C@H](O[C@@H]1O[C@H](C)C[C@H](N(C)C)[C@H]1O)[C@@H](C)C(=O)[C@@H](C)C(=O)O[C@@H]2CC | 0.2 (≈ 0.238 µM) | ≤ 0.05 | 0.2 (≈ 0.238 µM) | 0.1 (≈ 0.119 µM) | ≤ 0.05 | 3.13 (≈ 3.73 µM) | 0.1 (≈ 0.119 µM) | > 50 | 0.2 (≈ 0.238 µM) | 0.78 (≈ 0.93 µM) | 0.1 (≈ 0.119 µM) | ≤ 0.05 | ≤ 0.05 | 0.78 (≈ 0.93 µM) | 0.78 (≈ 0.93 µM)
